Reference: ChEMBL document CHEMBL1140278, “Induction of apoptosis by a novel indirubin-5-nitro-3'-monoxime, a CDK inhibitor, in human lung cancer cells” (Bioorg Med Chem Lett, 2005)

Key:
HT-1080 = assay: Inhibitory activity on the proliferation of Human fibrosarcoma HT1080 cancer cells using MTT or sulforhodamine B assay; format: functional, cell-based
[1] = Inhibitory activity on the proliferation of Human colon carcinoma […] cancer cells using MTT or sulforhodamine B assay; format: functional, cell-based; conditions: Cancer cell lines
HL-60 = assay: Inhibitory activity on the proliferation of Human myeloid leukemia HL-60 cancer cells using MTT or sulforhodamine B assay; format: functional, cell-based
A549 [2] = assay: Inhibitory activity on the proliferation of Human lung carcinoma A549 cancer cells using MTT or sulforhodamine B assay; format: functional, cell-based
A549 [3] = assay: Effect of compound on cell cycle progression in Human lung A549 cancer cells at G0/G1 phase after 24 hours of administration; format: functional
A549 [4] = assay: Effect of compound on cell cycle progression in Human lung A549 cancer cells at S phase after 8 hours of administration; format: functional
A549 [5] = assay: Effect of compound on cell cycle progression in Human lung A549 cancer cells at G2/M phase after 16 hours of administration; format: functional
A549 [6] = assay: Effect of compound on cell cycle progression in Human lung A549 cancer cells at G0/G1 phase after 16 hours of administration; format: functional
A549 [7] = assay: Effect of compound on cell cycle progression in Human lung A549 cancer cells at S phase after 16 hours of administration; format: functional
A549 [8] = assay: Effect of compound on cell cycle progression in Human lung A549 cancer cells at G2/M phase after 8 hours of administration; format: functional
A549 [9] = assay: Effect of compound on cell cycle progression in Human lung A549 cancer cells at S phase after 24 hours of administration; format: functional
A549 [10] = assay: Effect of compound on cell cycle progression in Human lung A549 cancer cells at Sub-G0 phase after 24 hours of administration; format: functional
A549 [11] = assay: Effect of compound on cell cycle progression in Human lung A549 cancer cells at Sub-G0 phase after 16 hours of administration; format: functional
A549 [12] = assay: Effect of compound on cell cycle progression in Human lung A549 cancer cells at G2/M phase after 24 hours of administration; format: functional
A549 [13] = assay: Effect of compound on cell cycle progression in Human lung A549 cancer cells at G0/G1 phase after 8 hours of administration; format: functional
A549 [14] = assay: Effect of compound on cell cycle progression in Human lung A549 cancer cells at Sub-G0 phase after 8 hours of administration; format: functional

Row | IC50 (HT-1080) [µM] | IC50 (HL-60) [µM] | IC50 (A549 [2]) [µM] | Structure (SMILES) | IC50 [1] [µM] | Activity (A549 [3]) [%] | Activity (A549 [4]) [%] | Activity (A549 [5]) [%] | Activity (A549 [6]) [%] | Activity (A549 [7]) [%] | Activity (A549 [8]) [%] | Activity (A549 [9]) [%] | Activity (A549 [10]) [%] | Activity (A549 [11]) [%] | Activity (A549 [12]) [%] | Activity (A549 [13]) [%] | Activity (A549 [14]) [%]
1 | > 100 | > 100 | > 100 | O=C1C(c2c(O)[nH]c3ccc(S(=O)(=O)O)cc23)=Nc2ccccc21 | > 100 | – | – | – | – | – | – | – | – | – | – | – | –
2 | 5.9 | 9.2 | 5.4 | O=Nc1c(-c2c(O)[nH]c3ccc([N+](=O)[O-])cc23)[nH]c2ccccc12 | 25.5 | 39.9 | 26.8 | 21.7 | 46.5 | 31.8 | 27.1 | 16.1 | 22 | 0 | 22 | 46.1 | 0
3 | 4.8 | > 100 | 62 | O=Nc1c(-c2c(O)[nH]c3ccccc23)[nH]c2ccccc12 [INDIRUBIN-3-MONOXIME] | > 100 | – | – | – | – | – | – | – | – | – | – | – | –
4 | 42.2 | > 100 | 31 | O=C1Nc2ccccc2/C1=C1/Nc2ccccc2C1=O [INDIRUBIN] | > 100 | – | – | – | – | – | – | – | – | – | – | – | –
